This is an account of results in US20250085300A1, “STABILITY-ENHANCING COMPOSITIONS AND METHODS OF PREPARING COMPOUNDS” (FOGHORN THERAPEUTICS INC., priority 2021, published 2025).

SMILES strings stand for the structures. Entries after “also recorded” stand apart in the source; their conditions may differ.

The target in assay [1] is T1, BRD9 (Homo sapiens, UniProt Q9H8M2).
T1 construct: Tumors were lysed with 1×RIPA lysis buffer; from tissue; host or cells: SYO-1 xenograft tumours from BALB/c Nude mice
T1 sequence (Q9H8M2 1-597): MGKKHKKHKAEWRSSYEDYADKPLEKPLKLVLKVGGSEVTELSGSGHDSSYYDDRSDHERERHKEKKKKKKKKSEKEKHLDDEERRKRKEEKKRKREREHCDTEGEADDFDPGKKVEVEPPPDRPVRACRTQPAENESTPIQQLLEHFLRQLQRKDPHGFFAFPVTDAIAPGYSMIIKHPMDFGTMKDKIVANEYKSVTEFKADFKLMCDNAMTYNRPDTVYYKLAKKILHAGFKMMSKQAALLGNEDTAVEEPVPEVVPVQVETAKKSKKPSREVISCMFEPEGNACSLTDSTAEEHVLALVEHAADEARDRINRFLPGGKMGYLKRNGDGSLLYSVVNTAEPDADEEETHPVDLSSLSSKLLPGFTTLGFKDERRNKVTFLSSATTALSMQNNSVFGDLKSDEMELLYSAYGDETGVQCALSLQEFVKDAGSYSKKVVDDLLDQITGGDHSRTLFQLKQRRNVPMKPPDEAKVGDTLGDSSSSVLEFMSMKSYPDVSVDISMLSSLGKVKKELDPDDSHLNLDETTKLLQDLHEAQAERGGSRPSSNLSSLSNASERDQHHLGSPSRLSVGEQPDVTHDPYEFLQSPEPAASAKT
The assay can be described thus: BRD9 western blot in synovial sarcoma tumors in vivo (Example 11). The following applies: 1 mg/kg i.p. for 4 weeks. More on the design: species or system mice. Here is the method: Method: Mice were treated with D1, 1 mg/kg, i.p. for 4 weeks. Mice were then euthanized, and tumors were collected at 8 hours, 72 hours, and 168 hours post last dose. Tumors were lysed with 1x RIPA lysis buffer (Boston BioProducts, BP-115D) with protease and phosphatase protein inhibitor (Roche Applied Science #04906837001 & 05892791001). Equal amounts of lysate (30 μg) were loaded in 4-12% Bis-Tris Midi Protein Gels in 1×MOPS buffer; samples ran at 120 V for 120 minutes. Protein was transferred to membrane with TransBlot at 250 mA for 150 minutes, and then membranes were blocked with Odyssey blocking buffer for 1 hour at room temperature. Membranes were hybridized overnight in cold room with primary antibodies. Images acquired using Li-COR imaging system (Li-COR Biotechnology, Lincoln, Nebraska).
For orientation: Immunoblotting shows a protein as a band on a membrane.

Assay [2] addresses T2, Nanoluciferase-BRD9 fusion protein (Homo sapiens, UniProt Q9H8M2).
T2 construct: expressed in transfected cells
The assay can be described thus: SYO1 BRD9 NanoLuc degradation assay. Type of assay: cell-based. The following applies: 6 hours. As to the method: Procedure: A stable SYO-1 cell line expressing 3×FLAG-NLuc-BRD9 was generated. On day 0 cells were seeded in 30 μL media into each well of 384-well cell culture plates. The seeding density was 8000 cells/well. On day 1, cells were treated with 30 nL DMSO or 30 nL of 3-fold serially DMSO-diluted compounds (10 points in duplicates with 1 μM as final top dose). Subsequently plates were incubated for 6 hours in a standard tissue culture incubator and equilibrated at room temperature for 15 minutes. Nanoluciferase activity was measured by adding 15 μL of freshly prepared Nano-Glo Luciferase Assay Reagent (Promega N1130), shaking the plates for 10 minutes and reading the bioluminescence using an EnVision reader.
Results: The Inhibition % was calculated using the following formula: % Inhibition=100×(LumHC−LumSample)/(LumHC−LumLC). DMSO treated cells are employed as High Control (HC) and 1 μM of a known BRD9 degrader standard treated cells are employed as Low Control (LC).

The subject of assay [3] is non-synovial control cancer cell lines (293T, A549, G401). The experiment in a line: Growth of non-synovial control cancer cell lines (Example 2). Type of assay: cell-based. As to the method:
(§1) Cells were treated with DMSO or the BRD9 degrader, Compound 1, at indicated concentrations, and proliferation was monitored from day 7 to day 14 by measuring confluency over time using an IncuCyte live cell analysis system (FIG. 4). Growth medium and compounds were refreshed every 3-4 days.
(§2) Cells were seeded into 12-well plates and treated with DMSO, 1 μM BRD9 inhibitor, Compound 2 (also known as BI-7273, see Martin et al, J Med Chem. 59 (10): 4462-4475 (2016); see structure of compound 2 below), or 1 μM BRD9 degrader, Compound 1.
(§3) The number of cells was optimized for each cell line. Growth medium and compounds were refreshed every 3-5 days. SYO1, Yamato, A549, 293T and HS-SY-II cells were fixed and stained at day 11. ASKA cells were fixed and stained at day 23. Staining was done by incubation with crystal violet solution (0.5 g Crystal Violet, 27 ml 37% Formaldehyde, 100 mL 10×PBS, 10 mL Methanol, 863 dH20 to 1 L) for 30 min followed by 3×washes with water and drying the plates for at least 24 h at room temperature. Subsequently plates were scanned on an Odyssey CLx Imaging system (FIG. 5).
(§4) Cells were seeded into 96-well ultra-low cluster plate (Costar, #7007) in 200 μL complete media and treated at day 2 with DMSO, Staurosporin, or BRD9 degrader, Compound 1, at indicated doses (FIG. 2C). Media and compounds were changed every 5 d and cell colonies were imaged at day 14.

In assay [4] the test system is non-synovial control cancer cell lines (RD, HCT116, and Calu6). The assay can be described thus: Growth of non-synovial control cancer cell lines, crystal violet day 14 (Example 3). Type of assay: cell-based. The following applies: daily treatment. Here is the method:
(§5) Procedure: Cells were seeded into 6-well or 12-well plates and were treated daily with a BRD9 degrader (Compound 1), a bromo-domain BRD9 binder (Compound 2), E3 ligase binder (lenalidomide), DMSO, or staurosporin (positive control for cell killing), at indicated concentrations. The number of cells was optimized for each cell line. Growth media was refreshed every 5 days. By day 14, medium was removed, cells were washed with PBS, and stained using 500 μL of 0.005% (w/v) crystal violet solution in 25% (v/v) methanol for at least 1 hour at room temperature. Subsequently plates were scanned on an Odyssey CLx Imaging system.

Assay [5] concerns synovial sarcoma cell lines (SYO1, HS-SY-II, and ASKA). The experiment in a line: Growth of synovial sarcoma cell lines, crystal violet day 14 (Example 3). Type of assay: cell-based. Conditions: daily treatment. As to the method: as §5
The test system of assay [6] is SYO1 cells. The assay can be described thus: Apoptosis assay (Annexin V-FITC). Type of assay: cell-based. The following applies: 200 nM or 1 μM, 8 days, compared to DMSO controls. As to the method:
(§6) Procedure: SYO1 cells were treated for 8 or 13 days with DMSO, a BRD9 degrader (Compound 1) at 200 nM or 1 μM, or an E3 ligase binder (lenalidomide) at 200 nM. Compounds were refreshed every 5 days. Cell cycle analysis was performed using the Click-iT™ Plus EdU Flow Cytometry Assay (Invitrogen). The apoptosis assay was performed using the Annexin V-FITC Apoptosis Detection Kit (Sigma A9210). Assays were performed according to the manufacturer's protocol.

The subject of assay [7] is synovial sarcoma cell lines (SYO1, Yamato, HS-SY-II, and ASKA). The assay can be described thus: Growth of synovial sarcoma cell lines (Example 2: IncuCyte confluency, crystal violet, colonies). Type of assay: cell-based. Conditions: 1 μM or indicated concentrations. As to the method:
as §1, §2, §3, §4

In assay [8] the test system is SYO1 cells. The assay can be described thus: Cell cycle analysis (Click-iT Plus EdU flow cytometry). Conditions: 200 nM or 1 μM, 8 or 13 days, compared to DMSO and lenalidomide. Type of assay: cell-based. Here is the method:
as §6
A general note: Flow cytometry measures light scatter and fluorescence of single cells or particles in a stream.

T2 sequence (Q96SW2 whole entry partner, one chain of several, the tested form may be a part): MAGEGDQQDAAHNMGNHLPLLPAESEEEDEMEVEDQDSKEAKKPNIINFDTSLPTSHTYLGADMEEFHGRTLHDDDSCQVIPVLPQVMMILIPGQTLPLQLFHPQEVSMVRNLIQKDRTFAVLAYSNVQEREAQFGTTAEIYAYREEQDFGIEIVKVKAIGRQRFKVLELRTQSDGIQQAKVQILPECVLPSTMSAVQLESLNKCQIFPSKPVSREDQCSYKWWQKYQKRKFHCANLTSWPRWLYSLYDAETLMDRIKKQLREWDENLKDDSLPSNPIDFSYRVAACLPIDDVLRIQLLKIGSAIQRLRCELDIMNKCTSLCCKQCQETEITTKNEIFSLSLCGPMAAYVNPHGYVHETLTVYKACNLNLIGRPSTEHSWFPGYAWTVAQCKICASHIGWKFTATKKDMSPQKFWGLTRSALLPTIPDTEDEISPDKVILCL

A word on the IC50: it is the point on the concentration scale where inhibition reaches its midpoint. Read a low IC50 as inhibition by little substance. In the case of `COc1cc(-c2cn(C)c(=O)c3cnc(N4CCC4)cc23)cc(OC)c1CN1CCC(CN2CCC3(CC2)CN(c2ccc4c(c2)C(=O)N(C2CCC(=O)NC2=O)C4)C3)CC1` (racemic) [Compound D1, 3-[6-(7-[[1-([4-[6-(azetidin-1-yl)-2-methyl-1-oxo-2,7-naphthyridin-4-yl]-2,6-dimethoxyphenyl]methyl)piperidin-4-yl]methyl]-2,7-diazaspiro[3.5]nonan-2-yl)-1-oxo-3H-isoindol-2-yl]piperidine-2,6-dione], the “time after dose with complete degradation of BRD9” value in assay [1] was “up to 168 hours”. For the same molecule, in assay [1] (tumors 8, 72, 168 hours post last dose), the “BRD9 level in tumor (western blot)” value is “complete degradation”. Further, the IC50 in assay [2] turned out to be 0.13 nM.
Take `COc1cc(-c2cn(C)c(=O)c3cnccc23)cc(OC)c1CN(C)CC(=O)NCCOCCOCCNc1cccc2c1C(=O)N(C1CCC(=O)NC1=O)C2=O` (stereo not shown) [Compound 1]: the “inhibition of cell growth” value in assay [3] is listed as “does not result in inhibition of the growth”; in assay [4], “did not result in inhibition of the growth”; in assay [5], “inhibition of the growth of the cells; also recorded: most significant growth inhibition”; in assay [7] it was “inhibition of the growth of the cells”. Moreover, the “numbers of early- and late-apoptotic cells” value in assay [6] is “increased numbers of early- and late-apoptotic cells”. For the same molecule, the “numbers of cells in the S-phase of the cell cycle” value in assay [8] is recorded as “reduced numbers of cells in the S-phase”.
`COc1cc(-c2cn(C)c(=O)c3cnccc23)cc(OC)c1CN(C)C` [Compound 2]: the “inhibition of cell growth” value in assay [3] is listed as “does not result in inhibition of the growth”; in assay [4], “did not result in inhibition of the growth”; in assay [5], “inhibition of the growth of the cells”; in assay [7], “inhibition of the growth of the cells”.
